Data on 17 compounds can be found in ChEMBL document CHEMBL5291721, “A preclinical secondary pharmacology resource illuminates target-adverse drug reaction associations of marketed drugs” (Nat Commun, 2023).

As usually defined, the AC50 is the midpoint of the concentration-response curve, whichever way the signal moves. The low end stands for activity at low concentration, the high end for activity only at high concentration.

Assay [1] has as its target 5-hydroxytryptamine receptor 2B (Homo sapiens, UniProt P41595). Type of assay: functional, cell-based.
The target in assay [2] is T1, Progesterone receptor (Homo sapiens, UniProt P06401).
T1 sequence (P06401 whole entry): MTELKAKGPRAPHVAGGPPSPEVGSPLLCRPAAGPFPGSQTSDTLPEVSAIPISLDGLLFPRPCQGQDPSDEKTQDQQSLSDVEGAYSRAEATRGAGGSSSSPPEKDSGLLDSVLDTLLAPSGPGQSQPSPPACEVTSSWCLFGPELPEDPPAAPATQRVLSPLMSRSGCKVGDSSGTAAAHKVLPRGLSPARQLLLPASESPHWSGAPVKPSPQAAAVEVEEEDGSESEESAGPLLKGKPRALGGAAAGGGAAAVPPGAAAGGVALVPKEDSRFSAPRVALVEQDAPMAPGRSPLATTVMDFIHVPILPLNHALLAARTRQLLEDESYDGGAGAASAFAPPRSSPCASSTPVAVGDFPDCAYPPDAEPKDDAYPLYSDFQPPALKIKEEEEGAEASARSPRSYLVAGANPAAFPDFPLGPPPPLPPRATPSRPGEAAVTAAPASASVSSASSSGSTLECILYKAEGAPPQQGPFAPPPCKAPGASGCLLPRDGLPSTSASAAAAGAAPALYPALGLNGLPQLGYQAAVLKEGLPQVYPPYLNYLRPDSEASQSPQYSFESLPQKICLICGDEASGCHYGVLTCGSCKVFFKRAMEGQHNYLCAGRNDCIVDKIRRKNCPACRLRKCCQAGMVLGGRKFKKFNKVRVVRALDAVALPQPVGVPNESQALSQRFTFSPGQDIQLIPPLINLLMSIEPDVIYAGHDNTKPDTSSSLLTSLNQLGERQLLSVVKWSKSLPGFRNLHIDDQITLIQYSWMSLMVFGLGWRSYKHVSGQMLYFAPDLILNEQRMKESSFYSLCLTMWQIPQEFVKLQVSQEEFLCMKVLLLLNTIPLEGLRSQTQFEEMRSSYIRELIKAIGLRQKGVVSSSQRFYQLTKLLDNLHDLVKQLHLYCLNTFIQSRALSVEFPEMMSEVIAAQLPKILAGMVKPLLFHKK

For assay [3], the target named is T2, Alpha-2A adrenergic receptor (Homo sapiens, UniProt P08913).
T2 sequence (P08913 whole entry): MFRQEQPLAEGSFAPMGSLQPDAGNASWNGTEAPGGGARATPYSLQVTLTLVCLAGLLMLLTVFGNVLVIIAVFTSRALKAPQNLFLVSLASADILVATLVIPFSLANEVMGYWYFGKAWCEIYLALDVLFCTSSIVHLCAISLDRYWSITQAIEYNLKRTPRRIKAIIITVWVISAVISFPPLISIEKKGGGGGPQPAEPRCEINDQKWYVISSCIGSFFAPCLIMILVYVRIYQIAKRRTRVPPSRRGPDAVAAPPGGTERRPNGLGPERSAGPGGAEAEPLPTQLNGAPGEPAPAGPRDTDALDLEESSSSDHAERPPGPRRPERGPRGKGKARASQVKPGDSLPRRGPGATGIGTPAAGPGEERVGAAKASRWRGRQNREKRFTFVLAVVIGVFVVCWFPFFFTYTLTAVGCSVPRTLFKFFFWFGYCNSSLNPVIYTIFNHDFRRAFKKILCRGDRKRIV

Assay [4] addresses T3, Thromboxane A2 receptor (Homo sapiens, UniProt P21731).
T3 sequence (P21731 whole entry): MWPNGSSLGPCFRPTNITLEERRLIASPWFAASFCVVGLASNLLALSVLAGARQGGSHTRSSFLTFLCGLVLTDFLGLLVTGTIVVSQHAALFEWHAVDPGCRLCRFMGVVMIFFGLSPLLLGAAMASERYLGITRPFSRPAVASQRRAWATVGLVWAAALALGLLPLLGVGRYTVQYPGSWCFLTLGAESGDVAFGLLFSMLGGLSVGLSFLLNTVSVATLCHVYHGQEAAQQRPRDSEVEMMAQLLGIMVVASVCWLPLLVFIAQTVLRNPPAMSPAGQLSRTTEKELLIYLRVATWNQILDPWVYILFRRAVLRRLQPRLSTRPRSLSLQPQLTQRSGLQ
In kind it is functional, cell-based.

The target in assay [5] is Vascular endothelial growth factor receptor 2 (Homo sapiens, UniProt P35968). Type of assay: functional.
Chain of Vascular endothelial growth factor receptor 2 (P35968 whole entry): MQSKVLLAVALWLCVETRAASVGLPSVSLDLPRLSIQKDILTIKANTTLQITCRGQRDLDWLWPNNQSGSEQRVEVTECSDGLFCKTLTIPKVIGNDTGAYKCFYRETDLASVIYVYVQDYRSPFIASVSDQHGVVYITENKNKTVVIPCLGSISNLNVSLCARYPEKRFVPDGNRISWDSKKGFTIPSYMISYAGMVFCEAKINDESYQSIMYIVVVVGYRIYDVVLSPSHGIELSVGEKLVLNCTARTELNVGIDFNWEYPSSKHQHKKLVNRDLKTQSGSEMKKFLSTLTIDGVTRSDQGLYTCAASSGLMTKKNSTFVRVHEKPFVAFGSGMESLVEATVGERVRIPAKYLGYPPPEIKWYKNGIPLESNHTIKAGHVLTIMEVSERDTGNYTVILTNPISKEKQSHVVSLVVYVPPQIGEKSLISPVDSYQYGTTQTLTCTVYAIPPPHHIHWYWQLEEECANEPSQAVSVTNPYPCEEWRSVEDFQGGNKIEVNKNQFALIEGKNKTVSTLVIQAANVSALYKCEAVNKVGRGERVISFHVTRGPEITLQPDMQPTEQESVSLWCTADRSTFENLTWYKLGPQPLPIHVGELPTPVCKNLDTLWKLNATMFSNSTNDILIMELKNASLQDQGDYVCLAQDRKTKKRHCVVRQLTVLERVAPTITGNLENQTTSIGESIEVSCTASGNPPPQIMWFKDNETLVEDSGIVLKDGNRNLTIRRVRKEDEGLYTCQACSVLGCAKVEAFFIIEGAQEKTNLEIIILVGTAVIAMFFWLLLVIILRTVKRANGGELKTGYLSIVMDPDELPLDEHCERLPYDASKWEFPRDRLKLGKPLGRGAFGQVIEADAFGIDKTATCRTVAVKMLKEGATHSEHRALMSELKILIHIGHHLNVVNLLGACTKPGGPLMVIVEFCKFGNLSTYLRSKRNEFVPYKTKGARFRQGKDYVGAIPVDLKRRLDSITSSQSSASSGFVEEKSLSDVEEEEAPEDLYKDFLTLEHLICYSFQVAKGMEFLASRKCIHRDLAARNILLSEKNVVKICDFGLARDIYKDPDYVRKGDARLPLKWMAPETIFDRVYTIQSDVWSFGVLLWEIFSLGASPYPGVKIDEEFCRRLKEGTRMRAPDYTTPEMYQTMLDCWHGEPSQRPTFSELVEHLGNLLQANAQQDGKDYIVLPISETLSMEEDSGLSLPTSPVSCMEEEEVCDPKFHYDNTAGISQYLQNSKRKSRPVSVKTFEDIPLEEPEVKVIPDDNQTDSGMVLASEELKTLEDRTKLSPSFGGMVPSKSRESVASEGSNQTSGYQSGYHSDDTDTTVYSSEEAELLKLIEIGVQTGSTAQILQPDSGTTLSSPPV
The target in assay [6] is Mu-type opioid receptor (Homo sapiens, UniProt P35372).
Chain of Mu-type opioid receptor (P35372 whole entry): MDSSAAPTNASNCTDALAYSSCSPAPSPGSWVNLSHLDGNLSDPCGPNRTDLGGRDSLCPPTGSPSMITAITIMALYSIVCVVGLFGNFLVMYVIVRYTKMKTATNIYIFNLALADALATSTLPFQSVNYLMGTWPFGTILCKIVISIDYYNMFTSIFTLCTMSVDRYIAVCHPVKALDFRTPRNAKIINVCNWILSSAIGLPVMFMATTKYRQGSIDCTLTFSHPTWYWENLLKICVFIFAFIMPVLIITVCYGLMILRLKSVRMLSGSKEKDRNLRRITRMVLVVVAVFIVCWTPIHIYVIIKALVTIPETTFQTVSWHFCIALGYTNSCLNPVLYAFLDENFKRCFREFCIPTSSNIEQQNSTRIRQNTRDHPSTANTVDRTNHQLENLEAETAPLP
Assay [7] addresses Voltage-gated inwardly rectifying potassium channel KCNH2 (Homo sapiens, UniProt Q12809). Type of assay: functional.
Assay [8] has as its target Beta-1 adrenergic receptor (Homo sapiens, UniProt P08588). Type of assay: functional.
Assay [9] concerns the target Vasopressin V2 receptor (Homo sapiens, UniProt P30518).
Assay [10] has as its target T4, Cholecystokinin receptor type A (Homo sapiens, UniProt P32238).
T4 sequence (P32238 whole entry): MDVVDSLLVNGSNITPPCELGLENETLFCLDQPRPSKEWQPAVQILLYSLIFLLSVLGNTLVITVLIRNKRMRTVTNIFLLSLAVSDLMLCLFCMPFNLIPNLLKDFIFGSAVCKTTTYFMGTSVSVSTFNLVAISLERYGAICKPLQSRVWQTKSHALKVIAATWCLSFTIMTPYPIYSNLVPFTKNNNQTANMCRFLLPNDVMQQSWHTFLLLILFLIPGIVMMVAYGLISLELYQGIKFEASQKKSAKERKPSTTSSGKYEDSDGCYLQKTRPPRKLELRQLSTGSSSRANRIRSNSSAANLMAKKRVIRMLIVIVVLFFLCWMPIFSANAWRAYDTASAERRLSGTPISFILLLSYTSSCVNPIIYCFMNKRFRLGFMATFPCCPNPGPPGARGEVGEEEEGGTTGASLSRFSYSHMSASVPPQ

Assay [11] deals with Cannabinoid receptor 1 (Homo sapiens, UniProt P21554). Type of assay: functional, cell-based.
Chain of Cannabinoid receptor 1 (P21554 whole entry): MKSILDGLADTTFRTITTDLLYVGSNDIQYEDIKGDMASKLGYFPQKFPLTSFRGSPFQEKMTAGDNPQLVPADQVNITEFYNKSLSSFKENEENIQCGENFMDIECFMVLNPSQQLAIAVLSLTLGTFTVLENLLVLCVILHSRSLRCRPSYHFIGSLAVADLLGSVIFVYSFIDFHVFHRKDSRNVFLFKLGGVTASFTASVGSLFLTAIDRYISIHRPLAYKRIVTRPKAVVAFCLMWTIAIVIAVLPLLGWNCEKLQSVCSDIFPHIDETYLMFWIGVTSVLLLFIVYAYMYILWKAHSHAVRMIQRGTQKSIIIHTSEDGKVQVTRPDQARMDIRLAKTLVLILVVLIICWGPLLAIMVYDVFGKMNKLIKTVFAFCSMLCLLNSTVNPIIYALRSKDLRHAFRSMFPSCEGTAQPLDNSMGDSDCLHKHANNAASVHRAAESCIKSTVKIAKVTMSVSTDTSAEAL
Also: assay procedure not described here.

Chain of Vasopressin V2 receptor (P30518 whole entry): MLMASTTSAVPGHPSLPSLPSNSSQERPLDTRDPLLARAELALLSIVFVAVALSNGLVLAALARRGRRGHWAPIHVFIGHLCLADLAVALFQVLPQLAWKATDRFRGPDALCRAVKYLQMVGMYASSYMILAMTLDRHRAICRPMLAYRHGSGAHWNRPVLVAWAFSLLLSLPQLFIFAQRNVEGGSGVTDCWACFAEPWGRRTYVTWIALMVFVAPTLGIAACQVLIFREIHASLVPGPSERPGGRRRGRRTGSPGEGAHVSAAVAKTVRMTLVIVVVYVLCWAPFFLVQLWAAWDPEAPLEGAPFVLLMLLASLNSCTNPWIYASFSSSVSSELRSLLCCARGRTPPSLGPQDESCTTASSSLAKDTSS
Chain of Voltage-gated inwardly rectifying potassium channel KCNH2 (Q12809 whole entry): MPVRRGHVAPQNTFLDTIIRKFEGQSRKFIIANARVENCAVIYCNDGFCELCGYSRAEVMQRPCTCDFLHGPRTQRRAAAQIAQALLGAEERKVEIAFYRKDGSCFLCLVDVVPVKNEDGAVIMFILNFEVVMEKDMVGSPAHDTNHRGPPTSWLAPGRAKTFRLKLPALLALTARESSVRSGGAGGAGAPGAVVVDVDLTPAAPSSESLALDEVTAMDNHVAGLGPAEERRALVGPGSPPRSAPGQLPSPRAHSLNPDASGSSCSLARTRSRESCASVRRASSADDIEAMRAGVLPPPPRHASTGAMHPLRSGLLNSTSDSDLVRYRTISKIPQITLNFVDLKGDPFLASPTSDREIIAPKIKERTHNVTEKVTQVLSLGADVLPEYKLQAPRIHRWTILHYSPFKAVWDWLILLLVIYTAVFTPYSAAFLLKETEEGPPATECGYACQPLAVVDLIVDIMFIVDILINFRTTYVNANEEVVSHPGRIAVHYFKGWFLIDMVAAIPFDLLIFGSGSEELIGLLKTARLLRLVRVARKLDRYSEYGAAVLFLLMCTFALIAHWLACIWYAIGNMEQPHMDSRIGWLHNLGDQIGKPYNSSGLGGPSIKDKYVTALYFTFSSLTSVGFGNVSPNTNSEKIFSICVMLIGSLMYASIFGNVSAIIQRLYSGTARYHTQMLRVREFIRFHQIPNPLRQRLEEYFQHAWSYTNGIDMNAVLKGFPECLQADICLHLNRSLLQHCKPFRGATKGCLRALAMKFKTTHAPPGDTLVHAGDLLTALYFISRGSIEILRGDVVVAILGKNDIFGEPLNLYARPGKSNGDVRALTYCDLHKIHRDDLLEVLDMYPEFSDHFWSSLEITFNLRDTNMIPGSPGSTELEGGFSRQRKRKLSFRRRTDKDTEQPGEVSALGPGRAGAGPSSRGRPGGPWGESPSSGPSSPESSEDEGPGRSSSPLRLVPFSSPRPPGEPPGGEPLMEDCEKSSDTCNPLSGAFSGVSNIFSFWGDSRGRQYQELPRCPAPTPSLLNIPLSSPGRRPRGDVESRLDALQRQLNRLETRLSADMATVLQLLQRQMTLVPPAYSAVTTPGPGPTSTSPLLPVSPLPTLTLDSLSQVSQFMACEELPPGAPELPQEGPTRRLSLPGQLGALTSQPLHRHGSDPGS
Chain of Beta-1 adrenergic receptor (P08588 whole entry): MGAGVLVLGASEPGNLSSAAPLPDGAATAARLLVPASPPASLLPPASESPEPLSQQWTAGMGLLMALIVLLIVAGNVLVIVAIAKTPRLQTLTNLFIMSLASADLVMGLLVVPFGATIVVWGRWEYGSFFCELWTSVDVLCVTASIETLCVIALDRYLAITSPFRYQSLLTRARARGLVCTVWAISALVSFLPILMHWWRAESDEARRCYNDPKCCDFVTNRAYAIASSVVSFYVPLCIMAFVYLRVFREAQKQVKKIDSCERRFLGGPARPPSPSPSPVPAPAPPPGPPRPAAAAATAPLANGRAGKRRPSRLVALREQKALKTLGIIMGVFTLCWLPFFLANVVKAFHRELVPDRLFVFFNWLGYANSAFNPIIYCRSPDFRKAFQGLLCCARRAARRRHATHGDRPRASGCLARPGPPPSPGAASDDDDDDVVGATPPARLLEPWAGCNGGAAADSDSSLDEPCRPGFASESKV
Chain of 5-hydroxytryptamine receptor 2B (P41595 whole entry): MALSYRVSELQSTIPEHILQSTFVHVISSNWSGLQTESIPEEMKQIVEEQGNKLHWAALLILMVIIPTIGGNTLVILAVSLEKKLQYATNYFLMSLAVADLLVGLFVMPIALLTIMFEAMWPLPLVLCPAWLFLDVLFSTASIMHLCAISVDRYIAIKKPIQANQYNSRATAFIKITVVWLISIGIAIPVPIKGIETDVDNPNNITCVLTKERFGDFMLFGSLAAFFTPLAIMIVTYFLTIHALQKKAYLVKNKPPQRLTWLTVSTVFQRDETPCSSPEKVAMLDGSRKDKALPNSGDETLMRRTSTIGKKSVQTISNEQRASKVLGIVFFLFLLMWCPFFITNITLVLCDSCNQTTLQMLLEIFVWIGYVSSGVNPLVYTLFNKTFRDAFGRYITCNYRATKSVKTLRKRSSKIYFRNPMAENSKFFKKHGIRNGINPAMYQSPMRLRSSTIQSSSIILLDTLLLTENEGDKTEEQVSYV

For the compound `O=C(O)c1ccccc1` [BENZOIC ACID], the AC50 in [1], in assay [2], in [3], in assay [4], in [5] and in assay [6] was above 30 µM throughout.
With `Nc1c(CC(=O)O)cccc1C(=O)c1ccc(Br)cc1` [BROMFENAC], the AC50 in assay [1], in assay [2], in assay [3], in assay [4], in assay [7] and in [6] was above 30 µM each time.
As to `Cc1cc(C2CCCCC2)n(O)c(=O)c1` [CICLOPIROX], the AC50 in assay [1] is above 30 µM; in [2], above 30 µM; in assay [3], above 30 µM; in [8], above 30 µM; in assay [4], 25.4 µM; in assay [7], above 30 µM. The AC50 in [5] and in [6] was above 30 µM in each case.
For `CC(C(=O)O)c1cccc(Oc2ccccc2)c1` (centres undefined) [FENOPROFEN], the AC50 in [1], in assay [2], in [3], in assay [4], in assay [7] and in assay [5] was above 30 µM throughout. Also, in [6], the AC50 is above 30 µM.
`CC1(C)O[C@@H]2C[C@H]3[C@@H]4C[C@H](F)C5=CC(=O)C=C[C@]5(C)[C@@]4(F)[C@@H](O)C[C@]3(C)[C@]2(C(=O)CO)O1` [FLUOCINOLONE ACETONIDE]: the AC50 in [1] is above 30 µM; in [2], 0.0107 µM; in assay [3], above 30 µM; in assay [4], above 30 µM; in assay [7], above 30 µM; in assay [5], above 30 µM. The AC50 in [6] is above 30 µM.
As for `O=C(O)P(=O)(O)O` [FOSCARNET], the AC50 in [1], in [2], in assay [3], in [4], in assay [7] and in assay [5] was above 30 µM throughout. In assay [6], this compound registered an AC50 above 30 µM.
On to `COc1ccccc1OC1(C)OC(=O)c2ccccc2O1` (centres undefined) [GUAIMESAL], for which the AC50 in [1], in assay [9], in assay [2], in assay [3], in assay [8] and in assay [4] was above 30 µM throughout. In addition, the AC50 in assay [10], in [7] and in [6] was above 30 µM each time.
Turning to `N=C(N)N/N=C/c1c(Cl)cccc1Cl` [GUANABENZ], the half-maximal activity concentration (AC50) in [1] is above 30 µM; in assay [2], above 30 µM; in [4] it was above 30 µM; in assay [7], above 30 µM; in [5] it was above 30 µM; in [6] it was 5.18 µM.
In the case of `COc1cc(C(C)=O)ccc1OCCCN1CCC(c2noc3cc(F)ccc23)CC1` [ILOPERIDONE], the AC50 in assay [1] was above 30 µM; in assay [2], above 30 µM; in [3], 0.06 µM; in assay [8], above 30 µM; in assay [4], above 10 µM; in assay [11] it was above 30 µM. Further, the AC50 in assay [10] was above 30 µM; in [7], 0.15 µM; in assay [6], 4.11 µM.
For `COc1ccc2[nH]c([S+]([O-])Cc3ncc(C)c(OC)c3C)nc2c1` (centres undefined) [OMEPRAZOLE], the AC50 in assay [1] is above 30 µM; in assay [2], above 30 µM; in assay [3], above 30 µM; in assay [4] it was above 30 µM; in assay [7], 17 µM; in [5], above 30 µM. In assay [6], half-maximal activity (AC50) was put at 12 µM.
As for `CC(CN1c2ccccc2Sc2ccccc21)N(C)C` (centres undefined) [PROMETHAZINE], the AC50 in [1] was above 30 µM; in assay [9] it was above 30 µM; in assay [2], above 30 µM; in assay [8], above 10 µM; in assay [4], above 30 µM; in [11], above 30 µM. Also, the AC50 in assay [10] was above 30 µM; in [7], 0.922 µM.
Regarding `C[N+](C)(C)CCOC(=O)CCC(=O)OCC[N+](C)(C)C` [SUXAMETHONIUM], the AC50 in [1] was above 30 µM; in [2], above 30 µM; in assay [3], 16.6 µM; in assay [4], above 30 µM; in [5], above 30 µM; in assay [6] it was above 30 µM.
In the case of `Cc1ccc(C(=O)c2ccc(CC(=O)O)n2C)cc1` [TOLMETIN], the AC50 in assay [1], in [2], in [3], in assay [4], in assay [7] and in assay [5] was above 30 µM in each case. Also, the AC50 in assay [6] is above 30 µM.
For the compound `C[C@]12C=CC(=O)C=C1CC[C@H]1[C@@H]3C[C@@H](O)[C@](O)(C(=O)CO)[C@@]3(C)C[C@H](O)[C@@]12F` [TRIAMCINOLONE], the AC50 in assay [1] was above 30 µM; in [2] it was 19.7 µM; in assay [3] it was above 30 µM; in assay [4], above 30 µM; in [7], above 30 µM; in assay [5], above 30 µM. This compound returned a half-maximal activity concentration (AC50) in assay [6] above 30 µM.
Regarding `CC(C)C[C@H](NC(=O)[C@@H](O)[C@H](N)Cc1ccccc1)C(=O)O` [UBENIMEX], the AC50 in assay [1], in [2], in assay [3], in assay [8], in assay [4] and in [11] was above 30 µM throughout. In addition, the AC50 in assay [7] and in assay [6] was above 30 µM each time.
In the case of `CCC1=C[C@@H]2CN(C1)Cc1c([nH]c3ccccc13)[C@@](C(=O)OC)(c1cc3c(cc1OC)N(C)[C@H]1[C@@](O)(C(=O)OC)[C@H](OC(C)=O)[C@]4(CC)C=CCN5CC[C@]31[C@@H]54)C2` [VINORELBINE], the AC50 is above 30 µM in assay [1]; above 30 µM in assay [2]; above 30 µM in assay [3]; above 30 µM in assay [4]; 5.5 µM in assay [7]; above 30 µM in [5]. This compound came in with a concentration at half-maximal activity (AC50) in assay [6] of 6.76 µM.
As to `O=C1Cc2cc(CCN3CCN(c4nsc5ccccc45)CC3)c(Cl)cc2N1` [ZIPRASIDONE], the AC50 in assay [1] was above 30 µM; in [9], above 30 µM; in [2], above 30 µM; in [8], above 10 µM; in assay [4], above 30 µM; in assay [11] it was above 30 µM. Also, the concentration at half-maximal activity (AC50) in assay [10] is above 30 µM; in assay [5], 11.2 µM; in [6], 5.06 µM.
